Experimental data published in the Bradley open melting point set (2014).

| SMILES | melting point |
| --- | --- |
| O=C(NC/1=N/C(=O)c2ncn(c2N\1)COCCO)C [N-Acetylacyclovir] | 217 °C |
| CCCCCCCCCCNCCCCCCCCCC [N-Decyldecan-1-amine] | 43 °C |
| O=C(c1ccccc1)N(O)c1ccccc1 [N-Hydroxy-N-phenylbenzamide] | 119 °C |
| CCCCCCCCNCCCCCCCC [N-Octyloctan-1-amine] | 14 °C |
| CCCCCNCCCCC [N-Pentylpentan-1-amine] | -44 °C |
| CCCNCCC [N-Propylpropan-1-amine] | -40 °C |
| CCCCC(=O)O [N-Valeric Acid] | -34 °C |
| CC(=O)Nc1ccccc1C1C=c2ccccc2=N1 (stereo not given) [N-[2-(1H-indol-2-yl)phenyl]acetamide] | 152 °C |
| CC(=O)Nc1ccccc1C#Cc1ccccc1 [N-[2-(phenylethynyl)phenyl]acetamide] | 119 °C |
| CC(=O)Nc1ccc(-c2ccc3nn(-c4ccccc4)nc3c2)cc1 [N-[4-(2-phenyl-2H-benzotriazol-5-yl)phenyl]acetamide] | 173 °C |
| CC(=O)N[C@@H](CS)C(=O)O [N-acetyl-l-cysteine] | 110 °C |
| CC(=O)N[C@@H](Cc1ccccc1)C(=O)O [N-acetyl-l-phenylalanine] | 168 °C |
| O=C(c1ccccc1)N(O)c1ccccc1 [N-benzoyl-N-phenylhydroxylamine] | 119 °C |
| O=C(NCc1ccccc1)c1ccccc1 [N-benzylbenzamide] | 106 °C |
| O=C(C[C@H](NC(=O)OCc1ccccc1)C(=O)O)OCc1ccccc1 [N-benzyloxycarbonyl-l-aspartic acid 4-benzyl ester] | 106 °C |
| COC(=O)[C@H](CCC(=O)O)NC(=O)OCc1ccccc1 [N-benzyloxycarbonyl-l-glutamic acid 1-methyl ester] | 67 °C |
| O=C(N[C@@H](Cc1ccccc1)C(=O)O)OCc1ccccc1 [N-benzyloxycarbonyl-l-phenylalanine] | 86 °C |
| O=C(N[C@@H](CO)C(=O)O)OCc1ccccc1 [N-benzyloxycarbonyl-l-serine] | 119 °C |
| CC(C)(C)OC(=O)N[C@@H](Cc1ccc(Cl)cc1Cl)C(=O)O [N-boc-2,4-dichloro-L-phenylalanine] | 135 °C |
| CC(C)(C)OC(=O)N[C@](C)(C(=O)O)c1ccc2ccccc2c1 [N-boc-2-(2-naphthyl)-D-alanine] | 98 °C |
| CC(C)(C)OC(=O)N[C@@H](Cc1cccs1)C(=O)O [N-boc-3-(2-thienyl)-L-alanine] | 74 °C |
| CSCC[C@@H](NC(=O)OC(C)(C)C)C(=O)O [N-boc-D-methionine] | 49 °C |
| CC(C)(C)OC(=O)N1CCC[C@@H]1C(=O)O [N-boc-D-proline] | 134 °C |
| CC(C)(C)OC(=O)N1CCC[C@H]1C(=O)O [N-boc-L-proline] | 134 °C |

| SMILES | melting point |
| --- | --- |
| CCNC(=O)OC(C)(C)C [N-boc-ethylamine] | 40 °C |
| CC(C)(C)OC(=O)NCC(=O)O [N-boc-glycine] | 89 °C |
| C=CC(=O)OCCCC [N-butyl acrylate] | -64 °C |
| CCCCOC(=O)c1ccccc1 [N-butyl benzoate] | -22 °C |
| CCCCOC(=O)CCC [N-butyl butyrate] | -92 °C |
| CCCCCCCCCCCC(=O)OCCCC [N-butyl dodecanoate] | -10 °C |
| CCCCCCCCCC [N-decane] | -30 °C |
| CCCCCCCCCCCC [N-dodecane] | -10 °C |
| CCN1C(=O)C=CC1=O [N-ethylmaleimide] | 45 °C |
| CCCCCCP(=O)(O)O [N-hexylphosphonic acid] | 109 °C |
| ON(/C=C/c1ccccc1)c1ccccc1 [N-hydroxy-N-[(E)-2-phenylethenyl]aniline] | 120 °C |
| CC(C)Nc1ccccc1 [N-isopropylaniline] | -32 °C |
| CNC[C@H](O)[C@@H](O)[C@H](O)[C@H](O)CO [N-methyl-D-glucamine] | 130 °C |
| CN(CCO)CCO [N-methyldiethanolamine] | -21 °C |
| CCCCCCCCCCCCCCCCCC [N-octadecane] | 28 °C |
| CCCCCOC(C)=O [N-pentyl acetate] | -100 °C |
| CCCCCC1CCCCC1 [N-pentylcyclohexane] | -58 °C |
| CC(=O)N(Nc1ccccc1/N=N/c1ccccc1)c1ccccc1 [N-phenyl-N'-{2-[(E)-phenyldiazenyl]phenyl}acetohydrazide] | 103 °C |
| Nc1ccc(Nc2ccccc2)cc1 [N-phenyl-p-phenylenediamine] | 74 °C |
| CCCOC(C)=O [N-propyl acetate] | -92 °C |
| CCCc1ccccc1 [N-propylbenzene] | -100 °C |
| CCCNC(N)=O [N-propylurea] | 102 °C |
| CCCCCCCCCCCCCC(N)=O [N-tetradecanamide] | 106 °C |
| CCCCCCCCCCCCCC [N-tetradecane] | 6 °C |

| SMILES | melting point |
| --- | --- |
| CCCCCCCCCCCCCCc1ccccc1 [N-tetradecylbenzene] | 9 °C |
| CCCCCCCCCCCCC [N-tridecane] | -5 °C |
| CCCCCCCCCCC [N-undecane] | -26 °C |
| O=C(Nc1ccccc1/C=C/c1ccccc1)c1ccccc1 [N-{2-[(E)-2-phenylethenyl]phenyl}benzamide] | 98 °C |
| CC(C)(C)NCC(O)COc1cccc2c1C[C@H](O)[C@H](O)C2 (stereo not given in full) [Nadolol] | 130 °C |
| c1ccc2ccccc2c1 [Naphthalene] | 77 °C |
| COc1ccc2cc(C(C)COC(C)=O)ccc2c1 (stereo not given) [Naproxol acetate] | 61 °C |
| O=C1CN(/N=C/c2ccc([N+](=O)[O-])o2)C(=O)N1 [Nitrofurantoin] | 268 °C |
| O=[N+]([O-])OCC(CO[N+](=O)[O-])O[N+](=O)[O-] [Nitroglycerin] | 13.5 °C |
| CN1Cc2c(N)cccc2C(c2ccccc2)C1 (stereo not given) [Nomifensine] | 180 °C |
| CCCCCCCCCCCCCCCCCCCCCCCCCCCCC [Nonacosane] | 66 °C |
| O=C(O)C(F)(F)C(F)(F)C(F)(F)C(F)(F)C(F)(F)C(F)(F)C(F)(F)C(F)(F)C(F)(F)F [Nonadecafluorodecanoic acid] | 78 °C |
| CCOP(=S)(OCC)Oc1nc(Cl)c(Cl)cc1Cl [O,O-Diethyl O-(3,5,6-trichloropyridin-2-yl) phosphorothioate] | 42.5 °C |
| COP(=S)(OC)Oc1ccc([N+](=O)[O-])cc1 [O,O-Dimethyl O-(4-nitrophenyl) phosphorothioate] | 36 °C |
| Cc1ccc(-n2c(C)ccc2C)cc1 [OSM-S-26] | 45.5 °C |
| Cc1ccc(-n2c(C)cc(C=O)c2C)cc1 [OSM-S-29] | 110 °C |
| CCOC(=O)c1cc(C)n(-c2ccc(C(F)(F)F)cc2)c1C [OSM-S-32] | 67.5 °C |
| Cc1cc(C=O)c(C)n1-c1ccc(C(F)(F)F)cc1 [OSM-S-34] | 86 °C |
| CCOC(=O)c1ccc(-n2c(C)ccc2C)cc1 [OSM-S-40] | 60.5 °C |
| Cc1cc(/C=C2\SC(N(CC#N)c3ccccc3)=NC2=O)c(C)n1-c1ccc(C(F)(F)F)cc1 [OSM-S-42] | 182 °C |
| Cc1cc(C=O)c(C)n1-c1ccccn1 [OSM-S-44] | 62.5 °C |
| CC(=O)N(C1=NC(=O)/C(=C/c2cc(C)n(-c3ccccc3)c2C)S1)c1ccccc1 [OSM-S-49] | 238 °C |
